In PMC6152116, “Sulfonamide-Linked Ciprofloxacin, Sulfadiazine and Amantadine Derivatives as a Novel Class of Inhibitors of Jack Bean Urease; Synthesis, Kinetic Mechanism and Molecular Docking” (Molecules : A Journal of Synthetic Chemistry and Natural …, 2017):
Where “and” joins values, the source holds several entries; their conditions need not be identical. Equal entries are not always repeated. Entries after “also recorded” stand apart in the source; their conditions may differ. Where two headings read alike, the source gives them in different places.

Assays:
jack bean urease [1] = target: T1, jack bean urease (Canavalia ensiformis, UniProt P07374); assay: biochemical
Method: The jack bean urease action was determined by measuring the ammonia produced by the indophenol method described by Weatherburn. The reaction mixtures, containing 50 µL of buffer (100 mM urea, 10 mM dibasic potassium phosphate, 1 mM EDTA and 10 mM LiCl, pH 8.2), 20 µL of sample and 20 µL of the jack bean urease (5 U/mL) were added in a 96-well plate and the plate was incubated at 37 °C for 30 min. After incubation, 50 μL of phenol reagent (1%, w/v phenol and 0.005%, w/v sodium nitroprusside) and 50 μL of alkali reagents (0.5%, w/v NaOH and 0.1% NaOCl) were added in each well, and again the plate was incubated at 37 °C for 10 min. After the second incubation, the absorbance was checked at 625 nm, using a microplate reader (OPTIMax, Tunable, Sunnyvale, CA, USA). All reactions were performed in triplicate. The urease inhibition activity was calculated according to the following formula:Inhibition (%) = [(B − S)/B] × 100 where B and S are the optical densities of sample and blank. Thiourea was used as reference.

jack bean urease [2] = target: T1, jack bean urease; assay: Kinetic mechanism study of urease inhibition (Lineweaver–Burk plots); assay type: biochemical; conditions: for Ki′ (ESI dissociation constant): from intercept versus inhibitor concentration; for Inhibition Type: urea as substrate
Method: Kinetic analysis was carried out to determine the mode of inhibition. […] Kinetics were determined by varying the dose of urea in the presence of different doses of compound 3e (0.025, 0.05, 0.01 and 0.02 µM), compound 6a (0.00, 0.0011, 0.0022, and 0.0044 µM), compound 9e (0.00, 0.015, 0.03 and 0.06 µM) and compound 12d (0.0130, 0.026, 0.052, 0.104 and 0.208 µM). In detail the urea doses were varied between 100, 50, 25, 12.5, 6.25 and 3.125 mM mM for urease kinetics studies and the rest of the procedure was same for all kinetic studies as described in the urease inhibition assay protocol. Maximal initial velocities were determined from the initial linear portion of the absorbances up to 10 min after the addition of enzyme at per minute’s intervals. The inhibition type of the enzyme was assayed by Lineweaver–Burk plots of the inverse of velocities (1/V) versus the inverse of substrate concentration 1/[S] mM^−1. The EI dissociation constant Ki was determined by the secondary plot of 1/V versus inhibitor concentration and the ESI dissociation constant Ki′ was calculated from the intercept versus inhibitor concentrations. Urease activity was determined by measuring ammonia production using the indophenol method as reported previously. The results (change in absorbance per min) were recorded at 625 nm using a microplate reader (Optimax Tunable, Sunnyvale, CA, USA).

[3] = Free radical scavenging assay (DPPH); conditions: in comparison to the reference drug vitamin C
Method: Radical scavenging activity was determined by adjusting the already reported 2,2-diphenyl-1-picrylhydrazyl (DPPH) assay method. The assay arrangement comprised 100 µL of DPPH (150 µM), 20 µL of increasing concentrations of test compounds and the volume was adjusted to 200 µL in each well with DMSO. At a room temperature, the reaction mixture was incubated for 30 min. Ascorbic acid (Vitamin C) was utilized as a model inhibitor. The assay estimations were done by using a micro plate reader (OPTIMax, Tunable, Sunnyvale, CA, USA) at 517 nm. The response rates were analyzed and the percent inhibition caused by the presence of the tested inhibitor was calculated. Each concentration was analyzed in three independent experiments run thrice.

[4] = 100 mM urea, pH 8.2, 37 °C, read-out: Urease Activity IC50 ± SEM
[5] = Urease Activity IC50 ± SEM, 100 mM urea, pH 8.2, 37 °C

T1 sequence (P07374 whole entry, looked up): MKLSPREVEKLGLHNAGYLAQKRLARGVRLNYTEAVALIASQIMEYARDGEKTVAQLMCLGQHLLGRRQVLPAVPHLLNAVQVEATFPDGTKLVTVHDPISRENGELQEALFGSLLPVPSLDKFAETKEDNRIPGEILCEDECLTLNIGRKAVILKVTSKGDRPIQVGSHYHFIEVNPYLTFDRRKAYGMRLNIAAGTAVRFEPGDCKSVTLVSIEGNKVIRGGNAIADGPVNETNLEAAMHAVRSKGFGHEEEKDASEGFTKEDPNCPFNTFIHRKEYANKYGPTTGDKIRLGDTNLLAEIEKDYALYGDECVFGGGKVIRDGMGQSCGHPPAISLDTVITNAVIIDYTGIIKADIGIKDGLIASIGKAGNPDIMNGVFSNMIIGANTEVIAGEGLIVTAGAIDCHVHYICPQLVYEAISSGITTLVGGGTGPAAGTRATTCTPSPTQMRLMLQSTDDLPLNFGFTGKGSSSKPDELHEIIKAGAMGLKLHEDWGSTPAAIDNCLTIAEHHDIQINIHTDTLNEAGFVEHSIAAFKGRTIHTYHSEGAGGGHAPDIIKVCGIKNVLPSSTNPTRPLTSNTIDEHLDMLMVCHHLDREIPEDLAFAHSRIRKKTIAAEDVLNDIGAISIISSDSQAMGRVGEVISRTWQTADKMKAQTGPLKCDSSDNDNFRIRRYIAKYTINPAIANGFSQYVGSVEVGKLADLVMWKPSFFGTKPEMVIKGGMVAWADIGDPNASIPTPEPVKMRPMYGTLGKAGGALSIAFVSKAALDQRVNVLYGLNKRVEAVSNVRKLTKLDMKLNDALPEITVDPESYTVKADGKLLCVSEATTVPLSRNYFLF

**Q.** With “2-((2,3-Dichlorophenyl)sulfonyl)hydrazine-1-carbothioamide [Compound 6d]” as the molecule, how does the IC50 (jack bean urease [1]; [4]) read?
**A.** 95 ± 4 nM

**Q.** Which IC50 (jack bean urease [1]; [4]) does the source give for “2-((3,5-Dimethylphenyl)sulfonyl)hydrazine-1-carbothioamide [Compound 6e]” here?
**A.** 174 ± 9 nM

**Q.** Which IC50 (jack bean urease [1]; [4]) does the source give for “2-((4-Methyl-3-nitrophenyl)sulfonyl)hydrazine-1-carbothioamide [Compound 6f]” here?
**A.** 127 ± 7.6 nM

**Q.** Which IC50 (jack bean urease [1]; [5]) does the source give for `Cc1ccc(S(=O)(=O)Nc2ccc(S(=O)(=O)Nc3ncccn3)cc2)cc1` [Compound 6a, 4-Methyl-N-(4-(N-(pyrimidin-2-yl)sulfamoyl)phenyl)benzenesulfonamide] here?
**A.** 2.23 nM and 2.2 nM and 2 nM

**Q.** What about the melting point of the same molecule?
**A.** 223 to 225 °C

**Q.** What about the Ki (jack bean urease [2]) of the same molecule?
**A.** 1.1 nM

**Q.** What about the “Ki′ (ESI dissociation constant)” value (jack bean urease [2]) of the same molecule?
**A.** 1.6 nM

**Q.** What about the Vmax (jack bean urease [2]; inhibitor dose 0.0011 µM) of the same molecule?
**A.** 0.00769 ΔA/Min

**Q.** What about the Vmax (jack bean urease [2]; inhibitor dose 0.0022 µM) of the same molecule?
**A.** 0.00493 ΔA/Min

**Q.** What about the Vmax (jack bean urease [2]; inhibitor dose 0.0044 µM) of the same molecule?
**A.** 0.00351 ΔA/Min

**Q.** What about the “Inhibition Type” value (jack bean urease [2]) of the same molecule?
**A.** mixed type of mode inhibition

**Q.** Which IC50 (jack bean urease [1]; read-out: Urease Activity IC50 ± SEM, 100 mM urea, pH 8.2, 37 °C) does the source give for `O=[N+]([O-])c1ccccc1S(=O)(=O)Nc1ccc(S(=O)(=O)Nc2ncccn2)cc1` [Compound 6b, 2-Nitro-N-(4-(N-(pyrimidin-2-yl)sulfamoyl)phenyl)benzenesulfonamide] here?
**A.** 233 ± 11 nM

**Q.** Which results are given for `O=S(=O)(Nc1ccc(S(=O)(=O)Nc2ncccn2)cc1)c1ccc(-c2ccccc2)cc1` [Compound 6c, N-(4-(N-(pyrimidin-2-yl)sulfamoyl)phenyl)-[1,1′-biphenyl]-4-sulfonamide]?
**A.** IC50 (jack bean urease [1]; [5]): 141 ± 7 nM; melting point: 168 to 170 °C

**Q.** Which IC50 (jack bean urease [1]; [5]) does the source give for `Cc1ccc(S(=O)(=O)NC23CC4CC(CC(C4)C2)C3)cc1` [Compound 9a, N-(Adamantan-1-yl)-4-methylbenzenesulfonamide] here?
**A.** 289 ± 15 nM

**Q.** With `O=[N+]([O-])c1ccc(S(=O)(=O)NC23CC4CC(CC(C4)C2)C3)cc1` [Compound 9b, N-(Adamantan-1-yl)-4-nitrobenzenesulfonamide] as the molecule, how does the IC50 (jack bean urease [1]; [5]) read?
**A.** 27.6 ± 1 nM

**Q.** For `O=S(=O)(NC12CC3CC(CC(C3)C1)C2)c1ccc(-c2ccccc2)cc1` [Compound 9c, N-(Adamantan-1-yl)-[1,1′-biphenyl]-4-sulfonamide], which IC50 (jack bean urease [1]; [5]) is on record?
**A.** 17.8 nM

**Q.** What does the source list for `O=S(=O)(NC12CC3CC(CC(C3)C1)C2)c1cccc(Cl)c1Cl` [Compound 9d, N-(Adamantan-1-yl)-2,3-dichlorobenzenesulfonamide]?
**A.** IC50 (jack bean urease [1]; [5]): 53.3 ± 1 nM; melting point: 221 to 230 °C

**Q.** For `Cc1cc(C)cc(S(=O)(=O)NC23CC4CC(CC(C4)C2)C3)c1` [Compound 9e, N-(Adamantan-1-yl)-3,5-dimethylbenzenesulfonamide], which IC50 (jack bean urease [1]; [5]) is on record?
**A.** 25 nM

**Q.** And the melting point?
**A.** 162 to 164 °C

**Q.** And the Ki (jack bean urease [2])?
**A.** 22.5 nM

**Q.** And the Vmax (jack bean urease [2]; inhibitor dose 0.013 µM)?
**A.** 0.00299 ΔA/Min

**Q.** And the Vmax (jack bean urease [2]; inhibitor dose 0.015 µM)?
**A.** 0.00127 ΔA/Min

**Q.** What about the Vmax (jack bean urease [2]; inhibitor dose 0.03 µM) of the same molecule?
**A.** 0.00108 ΔA/Min

**Q.** And the Vmax (jack bean urease [2]; inhibitor dose 0.06 µM)?
**A.** 0.00085 ΔA/Min

**Q.** What about the “Inhibition Type” value (jack bean urease [2]) of the same molecule?
**A.** non-competitive mode of inhibition; also recorded: non-competitive mechanism; also recorded: Noncompetitive

**Q.** With `Cc1ccc(S(=O)(=O)NC23CC4CC(CC(C4)C2)C3)cc1[N+](=O)[O-]` [Compound 9f, N-(Adamantan-1-yl)-4-methyl-3-nitrobenzenesulfonamide] as the molecule, how does the IC50 (jack bean urease [1]; [5]) read?
**A.** 55.8 ± 1 nM

**Q.** For `Cc1ccc(S(=O)(=O)NNC(N)=S)cc1` [Compound 12a, 2-Tosylhydrazine-1-carbothioamide], which radical scavenging potency [3] is on record?
**A.** excellent radical scavenging potency

**Q.** What about the IC50 (jack bean urease [1]; [5]) of the same molecule?
**A.** 225 ± 6 nM

**Q.** What does the source list for `NC(=S)NNS(=O)(=O)c1ccc([N+](=O)[O-])cc1` [Compound 12b, 2-((4-Nitrophenyl)sulfonyl)hydrazine-1-carbothioamide]?
**A.** radical scavenging potency [3]: excellent radical scavenging potency; IC50 (jack bean urease [1]; [5]): 141 ± 4 nM; melting point: 160 to 162 °C

**Q.** With `NC(=S)NNS(=O)(=O)c1ccc(-c2ccccc2)cc1` [Compound 12c, 2-([1,1′-Biphenyl]-4-ylsulfonyl)hydrazine-1-carbothioamide] as the molecule, how does the IC50 (jack bean urease [1]; [5]) read?
**A.** 186 ± 7 nM

**Q.** For `NC(=S)NNS(=O)(=O)c1cccc(Cl)c1Cl` [Compound 12d, 2-((2,3-Dichlorophenyl)sulfonyl)hydrazine-1-carbothioamide], which radical scavenging potency [3] is on record?
**A.** excellent radical scavenging potency

**Q.** And the IC50 (jack bean urease [1]; [5])?
**A.** 26.6 nM and 26 nM

**Q.** And the melting point?
**A.** 229 to 231 °C

**Q.** What about the Ki (jack bean urease [2]) of the same molecule?
**A.** 53 nM

**Q.** What about the “Ki′ (ESI dissociation constant)” value (jack bean urease [2]) of the same molecule?
**A.** 125 nM

**Q.** What about the Vmax (jack bean urease [2]; inhibitor dose 0.026 µM) of the same molecule?
**A.** 0.00213 ΔA/Min

**Q.** What about the Vmax (jack bean urease [2]; inhibitor dose 0.052 µM) of the same molecule?
**A.** 0.00194 ΔA/Min

**Q.** What about the Vmax (jack bean urease [2]; inhibitor dose 0.104 µM) of the same molecule?
**A.** 0.0016 ΔA/Min

**Q.** And the Vmax (jack bean urease [2]; inhibitor dose 0.208 µM)?
**A.** 0.001 ΔA/Min

**Q.** What about the “Inhibition Type” value (jack bean urease [2]) of the same molecule?
**A.** mixed type of mode inhibition

**Q.** Which results are given for `Cc1cc(C)cc(S(=O)(=O)NNC(N)=S)c1` [Compound 12e, 2-((3,5-Dimethylphenyl)sulfonyl)hydrazine-1-carbothioamide]?
**A.** radical scavenging potency [3]: excellent radical scavenging potency; IC50 (jack bean urease [1]; [5]): 96 ± 4 nM; melting point: 160 to 162 °C

**Q.** With `Cc1ccc(S(=O)(=O)NNC(N)=S)cc1[N+](=O)[O-]` [Compound 12f, 2-((4-Methyl-3-nitrophenyl)sulfonyl)hydrazine-1-carbothioamide] as the molecule, how does the radical scavenging potency [3] read?
**A.** excellent radical scavenging potency

**Q.** And the IC50 (jack bean urease [1]; [5])?
**A.** 67 ± 2.9 nM

**Q.** And the melting point?
**A.** 160 to 163 °C

**Q.** With `NC(N)=S` [Thiourea, reference compound] as the molecule, how does the IC50 (jack bean urease [1]; [4]) read?
**A.** 17810 ± 96 nM
